From patent publication US12612413B2, “Heteroaryl compounds as inhibitors of programmed necrosis pathway, composition and method using the same” (ACCRO BIOSCIENCE INC., priority 2020, dated 2026) come the findings set out here.

Type in all cases: cell-based
One test has as its system HT-29 cells. The test can be described thus: HT-29 cell viability (necroptosis) assay. The following applies: Homo sapiens, TNF-α (40 ng/mL), Smac mimetic (100 nM), z-VAD (20 μM), 40 h, from survival rate curve. The procedure: Human colon cancer HT-29 cells were used in a necroptosis assay. For this assay, HT-29 cells were added to 96-well plates. The compounds at different concentrations (0.3, 1.0, 3.0, 10.0, 20.0 μM) were then preprocessed for two hours. TNF-α (40 ng/mL), Smac mimetic (100 nM) and z-VAD (20 μM) were added, and the mixture was incubated for 40 h. Quantitative analysis of cell viability was conducted. DMSO pretreatment group was used as a negative control. Concentration for 50% of maximal effect was calculated according to the curve of the survival rate measured at different concentrations. FIG. 1 depicts the EC50 curves of compound A16.

Another test has as its system MEF cells. The test can be described thus: MEF cell viability (necroptosis) assay. The following applies: Mus musculus, TNF-α (40 ng/mL), Smac mimetic (100 nM), z-VAD (20 μM), 12 h. On the procedure:
MEF cells were added to 96-well plate. The compounds at different concentrations (0.3, 1.0, 3.0, 10.0, 20.0 μM) were then preprocessed for two hours. TNF-α (40 ng/mL), Smac mimetic (100 nM) and z-VAD (20 μM) were added, and the mixture was incubated for 12 h. Quantitative analysis of cell survival was conducted. DMSO pretreatment group was used as a negative control. Concentration for 50% of maximal effect was calculated according to the curve of the survival rate measured at different concentrations. FIG. 2 depicts the EC50 curves of compound A9.

The subject of a further test is L929 cells. The experiment in a line: L929 cell viability (necroptosis) assay. The following applies: Mus musculus, TNF-α (40 ng/mL), z-VAD (20 μM), 16 h. On the procedure: L929 cells were added to 96-well plate. The compounds at different concentrations (0.3, 1.0, 3.0, 10.0, 20.0 μM) were then preprocessed for two hours. TNF-α (40 ng/mL), and z-VAD (20 μM) were added, and the mixture was incubated for 16 h. Quantitative analysis of cell survival was conducted. DMSO pretreatment was used as a negative control. Concentration for 50% of maximal effect was calculated according to the curve of the survival rate measured at different concentrations. FIG. 3 depicts the EC50 curves of compound A3.

Structures are written as SMILES.

Broadly, the EC50 is the concentration needed to bring the measured effect to its halfway point. For `O=S1(=O)C=C(C2CC2)c2cc3nccc(Nc4ccc5scnc5c4)c3cc21` [Compound A9], the figures for the 50% effective concentration (EC50) with HT-29 cells, in the test with MEF cells and in the test on L929 cells were 85 nM, 240 nM and 210 nM, respectively.
For `CC1=C(OCC2CC2)c2cc3nccc(Nc4ccc5scnc5c4)c3cc2S1(=O)=O` [Compound A21] the same measures were 310 nM, 440 nM and 8730 nM.
For the compound `CC1=Cc2cc3nccc(Nc4ccc5scnc5c4)c3cc2S1(=O)=O` [Compound A3], the EC50 was found to be 620 nM in the test with HT-29 cells and 1940 nM in the test on L929 cells.
For `CC1=CS(=O)(=O)c2cc3c(Nc4ccc5scnc5c4)ccnc3cc21` [Compound A7] the same measures were 380 nM and 240 nM.
With `O=S1(=O)C=C(c2ccccc2)c2cc3nccc(Nc4ccc5scnc5c4)c3cc21` [Compound A22], the EC50 in the test on HT-29 cells was 450 nM; with MEF cells it was 830 nM.
Turning to `CCOC1=C(C)S(=O)(=O)c2cc3c(Nc4ccc5scnc5c4)ccnc3cc21` [Compound A20], the concentration giving a half-maximal response (EC50) in the test on HT-29 cells is 280 nM; in the test on MEF cells, 310 nM; in the test with L929 cells it was 420 nM.
With `CC1(C)C(=O)c2cc3nccc(Nc4ccc5scnc5c4)c3cc2S1(=O)=O` [Compound B4, 8-(benzo[d]thiazol-5-ylamino)-2,2-dimethylthieno[2,3-g]quinolin-3(2H)-one 1,1-dioxide], the EC50 is 2080 nM with HT-29 cells and 9330 nM in the test with MEF cells.
Regarding `COCCOC1=CS(=O)(=O)c2cc3c(Nc4ccc5scnc5c4)ccnc3cc21` [Compound A17], the EC50 is 260 nM in the test with HT-29 cells and 300 nM in the test with MEF cells.
As for `CCOC1=CS(=O)(=O)c2cc3c(Nc4ccc5scnc5c4)ccnc3cc21` [Compound A13], the EC50 with HT-29 cells was 430 nM; in the test on MEF cells, 200 nM; with L929 cells it was 780 nM.
The like results for `O=S1(=O)CC2(OCCO2)c2cc3nccc(Nc4ccc5scnc5c4)c3cc21` [Compound B2, 8-(benzo[d]thiazol-5-ylamino)-2H-spiro[thieno[2,3-g]quinoline-3,2′-[1,3]dioxolane]1,1-dioxide] were, in that order, 300 nM, 435 nM and 430 nM.
With `O=S1(=O)CCc2cc3nccc(Nc4ccc5scnc5c4)c3cc21` [Compound B1, 8-(benzo[d]thiazol-5-ylamino)-2,3-dihydrothieno[2,3-g]quinoline 1,1-dioxide], the results for the concentration giving a half-maximal response (EC50) in the test on HT-29 cells and in the test with L929 cells were 1740 nM and 64000 nM, respectively.
Regarding `CC(C)OC1=CS(=O)(=O)c2cc3c(Nc4ccc5scnc5c4)ccnc3cc21` [Compound A14], the concentration giving a half-maximal response (EC50) in the test on HT-29 cells is 280 nM; with MEF cells, 290 nM.
For `C=C1c2cc3nccc(Nc4ccc5scnc5c4)c3cc2S(=O)(=O)C1(C)C` [Compound B8, 8-(benzo[d]thiazol-5-ylamino)-2,2-dimethyl-3-methylene-2,3-dihydrothieno[2,3-g]quinoline 1,1-dioxide] the same measures were 930 nM and 1770 nM.
